Reference: patent US6927234B2, “Xanthone derivatives, method of production thereof, and pharmaceutical composition containing the same” (Kuboyama Bio Ken Inc., priority 2003, dated 2005)
Read-outs that look alike come from different tables or passages of the source. Marks after values point to notes of the source that are not given here.

Assays:
Sarcoma 180 [1] = test: Sarcoma 180 assay, oral gavage for five days, sacrifice on Day 10 (Example 4); type: in vivo, Swiss-Webster mice; conditions: for % Tumor Inhibition: sacrificed Day 10, female mice
Description: (§1) The compound obtained in Example 1 was dissolved in ethyl alcohol at 10 mg/ml. Dilutions of this stock solution were made to 100, 10 and 1 mcg per kilo body weight of the mice. The Sarcoma 180 assay was carried out as described below.
The tumor stock was a Sarcoma 180 which was started in the laboratory from an American Type Culture Collection. This stock culture has been passed at weekly intervals as an ascites in non-treated Swiss-Webster mice.
(§2) The current studies were all carried out with Swiss-Webster mice obtained from Animal Technologics Ltd., Kent, Wash. To prepare the inoculum, the ascites fluid from a mouse with a 7-10 day ascites is aspirated using a sterile technique. Once a cell count is established, the tumor cells are diluted with normal saline or phosphate buffered saline to obtain a final concentration of 1 to 2×10^6 cells per mm^3. This is the tumor suspension that is then injected into the mice. The final dilution is plated on trypticase soy agar to determine if it is free of contamination.
(§3) One tenth (0.1 ml) of the above suspension is inoculated into the left hind leg muscle (hamstring muscle mass) of each mouse. The inoculated mice are placed into one large cage and then randomly segregated into groups of five mice. The mice are housed in shoe box cages on wood shavings with free access to water and laboratory chow. The mice are weighed on the day of inoculation, on day 7, day 10, and at time of sacrifice.
Treatment of the mice was initiated the day after transplant and then continued for five days.
(§4) At the end of the observation period, 10 days, the mice are sacrificed either by cervical dislocation or ether anesthesia. The skin over the left hind leg is removed to expose the tumor and the leg and tumor are removed at the hip joint. Any residual skin is removed and the legs with tumors are weighed individually. Ten normal legs (right legs) are prepared in a similar manner and weighed. The mean value of the normal leg is subtracted from the weight of the leg with the tumor to give an estimate of the actual tumor weight.

Sarcoma 180 [2] = test: Sarcoma 180 assay, oral dosing, 12-day treatment period (Example 5); type: in vivo, Swiss-Webster mice; conditions: 12 days treatment; for % Tumor Inhibition / Body wt. G (avg.): oral gavage
Description: as §1
The tumor stock was a Sarcoma 180, which was started in the laboratory from an American Type Culture Collection. This stock culture has been passed at weekly intervals as an ascites in non-treated Swiss-Webster mice.
as §2, with “7-12” for “7-10”, “sterile technique. The tumor cells are checked for viability using the trypan-blue staining” for “sterile”
as §3, with “12,” for “10,”
Treatment of the mice was initiated the day after transplant. The treatment period was 12 days.
as §4, with “period,” for “period, 10 days,”, “sacrificed” for “sacrificed either”, “by” for “by cervical dislocation or”, “weight. [formula]” for “weight.”

[3] = test system: adjuvant-induced arthritis; type: in vivo, Sprague-Dawley rats; conditions: gavage once per day for 7 days; for Rat paw wt.: five rats per group
Description: Adjuvant-induced arthritis responds to both steroids and non-steroids. The degree of inflammation is assessed by measuring differences in foot weight and/or the foot volume.
Rats weighing between 150-200 g were purchased from ATL, in Kent Wash. They were male Sprague-Dawley rats. The animals were kept individually in stainless steel cages with free access to water and feed (Harlan Teklan Rodent Diet). The light cycle was maintained at 12 hours light and 12 hours dark. The temperature was maintained at 22° C.±3° C. with a relative humidity of 40 to 70%.
[…] The test compound and hydrocortisone were given by gavage.
The test materials were delivered orally (by gavage) once per day for 7 days.
Male Sprague-Dawley rats (150-200 g) were sensitized by injecting Fruend's complete adjuvant (0.5% suspension of killed mycobacterium tuberculosis (H37RA, Difco, in mineral oil)). A 0.1 ml aliquot was administered intradermally at a plantar site on the right hind leg of each rat.
The test materials were given orally (by gavage) to each of 5 rats per treatment group once per day for 7 days. Administration of the test materials was initiated on the day of sensitization.
The left hind paw was measured just before sensitization an again on Day 7. The plantar edema inhibitory rate and the body weight gain were determined by comparison with the non-sensitized rat groups.
The paw weights for each rat group were averaged. Anti-inflammatory activity was determined by comparing paw weights calculated as follows: [formula]

Sarcoma 180 [4] = test: Sarcoma 180 assay, single intraperitoneal dose (Example 7); type: in vivo, Swiss-Webster mice
Text: [table] [table] The tumor stock was a Sarcoma 180 which was started in the laboratory from an American Type Culture Collection. This stock culture has been passed at weekly intervals as an ascites in non-treated Swiss-Webster mice. The current studies were all carried out with Swiss-Webster mice obtained from Animal Technologics Ltd., Kent, Wash. To prepare the inoculum, the ascites fluid from a mouse with a 7-10 day ascites is aspirated using a sterile technique. […] This was the tumor suspension that was then injected into the mice. The final dilution was plated on trypticase soy agar to determine if it was free of contamination. One tenth (0.1 ml) of the above suspension was inoculated into the left hind leg muscle (hamstring muscle mass) of each mouse. The inoculated mice were placed into one large cage and then randomly segregated into groups of five mice. The mice were housed in shoe box cages on wood shavings with free access to water and laboratory chow. The mice were weighed on the day of inoculation, on day 7, day 10, and at time of sacrifice. Treatment of the mice was initiated the day after transplant. At the end of the observation period, the mice were sacrificed by ether anesthesia. The skin over the left hind leg was removed to expose the tumor and the leg and tumor were removed at the hip joint. Any residual skin was removed and the legs with tumors were weighed individually. Ten normal legs (right legs) were prepared in a similar manner and weighed. The mean value of the normal leg was subtracted from the weight of the leg with the tumor to give an estimate of the actual tumor weight: […]

[5] = 1 mg/kg, single dose intraperitoneally
[6] = 10 mg/kg, single dose intraperitoneally
[7] = 100 mg/kg, single dose intraperitoneally

O=C(O)Cc1c2cc[nH]c2cc2c(=O)c3ccccc3oc12 [Compound of Example 1]
% Tumor Inhibition (Sarcoma 180 [1]; 1 mcg/kg): 43%
% Tumor Inhibition (Sarcoma 180 [1]; 10 mcg/kg): 100%
% Tumor Inhibition (Sarcoma 180 [1]; 100 mcg/kg): 100%
toxicity as indicated by the body weights (Sarcoma 180 [1]; any dose (1, 10, 100 mcg/kg)): No toxicity
toxicity from final body weights (Sarcoma 180 [2]; 1 and 10 mcg/kg, oral): not toxic
visible tumor (Sarcoma 180 [2]; 1 and 10 mcg/kg, oral): no visible tumor
% Tumor Inhibition (Sarcoma 180 [2]; 1 mcg/kg): 98.5* %
Body wt. G (avg.) (Sarcoma 180 [2]; 1 mcg/kg): 29.2 G
% Tumor Inhibition (Sarcoma 180 [2]; 10 mcg/kg): 100* %
Body wt. G (avg.) (Sarcoma 180 [2]; 10 mcg/kg): 28.7 G
% Inhibition (rat paw inflammation) ([3]; 1 mcg/kg body wt.): 95.2%
Rat paw wt. ([3]; 1 mcg/kg body wt.): 0.324 g

O=c1c2ccccc2oc2ccccc12 [Compound of Example 3, Xanthone]
% Inhibition (Sarcoma 180 [4]; [5]): 80%
Net Tumor wt. (Sarcoma 180 [4]; [5]): 0.3 g
% Inhibition (Sarcoma 180 [4]; [6]): 100%
Net Tumor wt. (Sarcoma 180 [4]; [6]): 0 g
% Inhibition (Sarcoma 180 [4]; [7]): 100%
Net Tumor wt. (Sarcoma 180 [4]; [7]): 0 g
evidence of tumor (Sarcoma 180 [4]; 10 and 100 mg/kg body weight, single dose intraperitoneally): no evidence of tumor
Body weight (Sarcoma 180 [4]; Day 1, 1 mg/kg single ip): 24.2 g
Body weight (Sarcoma 180 [4]; Day 1, 10 mg/kg single ip): 23.8 g
Body weight (Sarcoma 180 [4]; Day 1, 100 mg/kg single ip): 23.4 g
Body weight (Sarcoma 180 [4]; Day 7, 1 mg/kg single ip): 26 g
Body weight (Sarcoma 180 [4]; Day 7, 10 mg/kg single ip): 26.1 g
Body weight (Sarcoma 180 [4]; Day 7, 100 mg/kg single ip): 26.2 g
Body weight (Sarcoma 180 [4]; Day 10, 1 mg/kg single ip): 26.2 g
Body weight (Sarcoma 180 [4]; Day 10, 10 mg/kg single ip): 26.4 g
Body weight (Sarcoma 180 [4]; Day 10, 100 mg/kg single ip): 26.5 g

C[C@]12CCC(=O)C=C1CC[C@@H]1[C@@H]2[C@@H](O)C[C@@]2(C)[C@H]1CC[C@]2(O)C(=O)CO [hydrocortisone]
% Inhibition (rat paw inflammation) ([3]; 10 mg/kg body wt.): 42%
Rat paw wt. ([3]; 10 mg/kg body wt.): 0.98 g
